Assay results: patent US10792289B2 (Horizon Orphan LLC, priority 2009, dated 2020)
Converted amounts (≈) assume the structure as drawn. Read-outs that look alike come from different tables or passages of the source.

How the values were obtained:
[1] = test system: non-fermenting gram negative bacilli (NFGNB), excluding P. aeruginosa; test: Phase 2 study: non-fermenting gram negative bacilli density in sputum; assay type: in vivo
Method: The following dosage regimens (as nebulizer loaded doses) were evaluated: 120 mg QD (daily); 240 mg QD (daily); and 240 mg BID (twice daily). Based on aerosol characterization studies of the 100 mg/ml formulation, these loaded doses of 120 and 240 mg correspond estimated respirable delivered doses (RDDs) using a PART eFlow nebulizer of about 65 and 130 mg, respectively.
Patients were assessed on Day 1, 7, 14, and 28, and then up to 28 days after completion of study drug, namely, Days 42 and 56. The end of the study was defined as the last visit of the last patient. Study populations included: (1) safety/modified intent to treat (MITT) population which included all patients enrolled in the study that receive at least one dose of study drug; (2) efficacy evaluable (EE) population which included all patients enrolled in the study without major protocol violations that receive at least 80% of study drug doses during the 28 days of study drug therapy; and (3) pharmacokinetic (PK) population which included all patients that receive at least one dose of study drug and have at least one PK blood sample collected.
Changes in P. aeruginosa density (log lo CFU/g sputum) for sputum samples taken from the EE and MITT populations are summarized in Tables 10 and 11, respectively (SD=standard deviation). […] Tables 18 and 19 summarize changes in non-fermenting gram negative bacilli density (NFGNB), excluding P. aeruginosa, with only patients with positive NFGNB counts at baseline, for EE and MITT populations, respectively. Tables 20 and 21 summarize changes for presumptive S. aureus density (log10 CFU/g sputum) for only patients with positive S. aureus counts at baseline, for EE and MITT populations, respectively.

B. cepacia = test: Levofloxacin MIC against B. cepacia; assay type: cell-based; conditions: Burkholderia cepacia
stable CF patients = test: Phase 2 study: safety, adverse events, discontinuation; assay type: in vivo, human
Method: The following dosage regimens (as nebulizer loaded doses) were evaluated: 120 mg QD (daily); 240 mg QD (daily); and 240 mg BID (twice daily).
Patients were assessed on Day 1, 7, 14, and 28, and then up to 28 days after completion of study drug, namely, Days 42 and 56. The end of the study was defined as the last visit of the last patient.
Adverse events and drug intolerability from Day 1 through the end of study were evaluated.

[2] = EE population, Combined 240 mg QD and BID
[3] = EE population, Combined Levofloxacin
[4] = MITT population, Combined 240 mg QD and BID
[5] = MITT population, Combined Levofloxacin

In the case of `C[C@H]1COc2c(N3CCN(C)CC3)c(F)cc3c(=O)c(C(=O)O)cn1c23` [Levofloxacin, levofloxacin], the “NFGNB density, Change from Baseline to Day 7, Mean” value ([1]; EE population, 120 mg QD) is reported as −1.15 log10 CFU/g sputum, the “NFGNB density, Day 1, Mean” value ([1]; EE population, 120 mg QD) is reported as 5.69 log10 CFU/g sputum and the “NFGNB density, Day 7, Mean” value ([1]; EE population, 120 mg QD) is reported as 4.54 log10 CFU/g sputum. For the same molecule, the “NFGNB density, Day 14, Mean” value ([1]; EE population, 120 mg QD) was 3.15 log10 CFU/g sputum, the “NFGNB density, Day 28, Mean” value ([1]; EE population, 120 mg QD) was 5.10 log10 CFU/g sputum and the “NFGNB density, Change from Baseline to Day 28, Mean” value ([1]; EE population, 120 mg QD, Day 14) was −2.54 log10 CFU/g sputum. For the same molecule, the “NFGNB density, Change from Baseline to Day 28, Mean” value ([1]; EE population, 120 mg QD, Day 28) was −1.44 log10 CFU/g sputum, the “NFGNB density, Change from Baseline to Day 7, Mean” value ([1]; EE population, 240 mg BID) was −0.51 log10 CFU/g sputum and the “NFGNB density, Day 1, Mean” value ([1]; EE population, 240 mg BID) was 5.52 log10 CFU/g sputum. For the same molecule, the “NFGNB density, Day 7, Mean” value ([1]; EE population, 240 mg BID) was 5.01 log10 CFU/g sputum, the “NFGNB density, Day 14, Mean” value ([1]; EE population, 240 mg BID) was 6.02 log10 CFU/g sputum and the “NFGNB density, Day 28, Mean” value ([1]; EE population, 240 mg BID) was 5.01 log10 CFU/g sputum. For the same molecule, the “NFGNB density, Change from Baseline to Day 28, Mean” value ([1]; EE population, 240 mg BID, Day 14) was 0.50 log10 CFU/g sputum, the “NFGNB density, Change from Baseline to Day 28, Mean” value ([1]; EE population, 240 mg BID, Day 28) was −0.51 log10 CFU/g sputum and the “NFGNB density, Change from Baseline to Day 7, Mean” value ([1]; EE population, 240 mg QD) was −2.47 log10 CFU/g sputum. The “NFGNB density, Day 1, Mean” value ([1]; EE population, 240 mg QD) was 4.65 log10 CFU/g sputum, the “NFGNB density, Day 7, Mean” value ([1]; EE population, 240 mg QD) was 2.18 log10 CFU/g sputum and the “NFGNB density, Day 14, Mean” value ([1]; EE population, 240 mg QD) was 2.04 log10 CFU/g sputum. For the same molecule, the “NFGNB density, Day 28, Mean” value ([1]; EE population, 240 mg QD) was 1.36 log10 CFU/g sputum, the “NFGNB density, Change from Baseline to Day 28, Mean” value ([1]; EE population, 240 mg QD, Day 14) was −2.61 log10 CFU/g sputum and the “NFGNB density, Change from Baseline to Day 28, Mean” value ([1]; EE population, 240 mg QD, Day 28) was −3.29 log10 CFU/g sputum. The “NFGNB density, Change from Baseline to Day 7, Mean” value [1, 2] was −1.60 log10 CFU/g sputum, the “NFGNB density, Day 1, Mean” value [1, 2] was 5.03 log10 CFU/g sputum and the “NFGNB density, Day 7, Mean” value [1, 2] was 3.44 log10 CFU/g sputum. The “NFGNB density, Day 14, Mean” value [1, 2] was 3.80 log10 CFU/g sputum, the “NFGNB density, Day 28, Mean” value [1, 2] was 2.98 log10 CFU/g sputum and the “NFGNB density, Change from Baseline to Day 28, Mean” value ([1]; EE population, Combined 240 mg QD and BID, Day 14) was −1.23 log10 CFU/g sputum. For the same molecule, the “NFGNB density, Change from Baseline to Day 28, Mean” value ([1]; EE population, Combined 240 mg QD and BID, Day 28) was −2.05 log10 CFU/g sputum, the “NFGNB density, Change from Baseline to Day 7, Mean” value [1, 3] was −1.44 log10 CFU/g sputum and the “NFGNB density, Day 1, Mean” value [1, 3] was 5.27 log10 CFU/g sputum. For the same molecule, the “NFGNB density, Day 7, Mean” value [1, 3] was 3.83 log10 CFU/g sputum, the “NFGNB density, Day 14, Mean” value [1, 3] was 3.57 log10 CFU/g sputum and the “NFGNB density, Day 28, Mean” value [1, 3] was 3.63 log10 CFU/g sputum. For the same molecule, the “NFGNB density, Change from Baseline to Day 28, Mean” value ([1]; EE population, Combined Levofloxacin, Day 14) was −1.70 log10 CFU/g sputum, the “NFGNB density, Change from Baseline to Day 28, Mean” value ([1]; EE population, Combined Levofloxacin, Day 28) was −1.87 log10 CFU/g sputum and the “NFGNB density, Change from Baseline to Day 7, Mean” value ([1]; MITT population, 120 mg QD) was −1.15 log10 CFU/g sputum. The “NFGNB density, Day 1, Mean” value ([1]; MITT population, 120 mg QD) was 5.69 log10 CFU/g sputum, the “NFGNB density, Day 7, Mean” value ([1]; MITT population, 120 mg QD) was 4.54 log10 CFU/g sputum and the “NFGNB density, Day 14, Mean” value ([1]; MITT population, 120 mg QD) was 3.25 log10 CFU/g sputum. The “NFGNB density, Day 28, Mean” value ([1]; MITT population, 120 mg QD) was 5.10 log10 CFU/g sputum, the “NFGNB density, Change from Baseline to Day 28, Mean” value ([1]; MITT population, 120 mg QD, Day 14) was −2.54 log10 CFU/g sputum and the “NFGNB density, Change from Baseline to Day 28, Mean” value ([1]; MITT population, 120 mg QD, Day 28) was −1.44 log10 CFU/g sputum. The “NFGNB density, Change from Baseline to Day 7, Mean” value ([1]; MITT population, 240 mg BID) was −0.42 log10 CFU/g sputum, the “NFGNB density, Day 1, Mean” value ([1]; MITT population, 240 mg BID) was 6.05 log10 CFU/g sputum and the “NFGNB density, Day 7, Mean” value ([1]; MITT population, 240 mg BID) was 5.63 log10 CFU/g sputum. For the same molecule, the “NFGNB density, Day 14, Mean” value ([1]; MITT population, 240 mg BID) was 6.50 log10 CFU/g sputum, the “NFGNB density, Day 28, Mean” value ([1]; MITT population, 240 mg BID) was 5.63 log10 CFU/g sputum and the “NFGNB density, Change from Baseline to Day 28, Mean” value ([1]; MITT population, 240 mg BID, Day 14) was 0.45 log10 CFU/g sputum. For the same molecule, the “NFGNB density, Change from Baseline to Day 28, Mean” value ([1]; MITT population, 240 mg BID, Day 28) was −0.43 log10 CFU/g sputum, the “NFGNB density, Change from Baseline to Day 7, Mean” value ([1]; MITT population, 240 mg QD) was −2.73 log10 CFU/g sputum and the “NFGNB density, Day 1, Mean” value ([1]; MITT population, 240 mg QD) was 5.26 log10 CFU/g sputum. The “NFGNB density, Day 7, Mean” value ([1]; MITT population, 240 mg QD) was 2.52 log10 CFU/g sputum, the “NFGNB density, Day 14, Mean” value ([1]; MITT population, 240 mg QD) was 3.08 log10 CFU/g sputum and the “NFGNB density, Day 28, Mean” value ([1]; MITT population, 240 mg QD) was 2.77 log10 CFU/g sputum. The “NFGNB density, Change from Baseline to Day 28, Mean” value ([1]; MITT population, 240 mg QD, Day 14) was −2.18 log10 CFU/g sputum, the “NFGNB density, Change from Baseline to Day 28, Mean” value ([1]; MITT population, 240 mg QD, Day 28) was −2.49 log10 CFU/g sputum and the “NFGNB density, Change from Baseline to Day 7, Mean” value [1, 4] was −1.77 log10 CFU/g sputum. For the same molecule, the “NFGNB density, Day 1, Mean” value [1, 4] was 5.59 log10 CFU/g sputum, the “NFGNB density, Day 7, Mean” value [1, 4] was 3.82 log10 CFU/g sputum and the “NFGNB density, Day 14, Mean” value [1, 4] was 4.50 log10 CFU/g sputum. The “NFGNB density, Day 28, Mean” value [1, 4] was 3.96 log10 CFU/g sputum, the “NFGNB density, Change from Baseline to Day 28, Mean” value ([1]; MITT population, Combined 240 mg QD and BID, Day 14) was −1.08 log10 CFU/g sputum and the “NFGNB density, Change from Baseline to Day 28, Mean” value ([1]; MITT population, Combined 240 mg QD and BID, Day 28) was 1.63 log10 CFU/g sputum. The “NFGNB density, Change from Baseline to Day 7, Mean” value [1, 5] was −1.59 log10 CFU/g sputum, the “NFGNB density, Day 1, Mean” value [1, 5] was 5.62 log10 CFU/g sputum and the “NFGNB density, Day 7, Mean” value [1, 5] was 4.03 log10 CFU/g sputum. The “NFGNB density, Day 14, Mean” value [1, 5] was 4.11 log10 CFU/g sputum, the “NFGNB density, Day 28, Mean” value [1, 5] was 4.24 log10 CFU/g sputum and the “NFGNB density, Change from Baseline to Day 28, Mean” value ([1]; MITT population, Combined Levofloxacin, Day 14) was −1.51 log10 CFU/g sputum. For the same molecule, the “NFGNB density, Change from Baseline to Day 28, Mean” value ([1]; MITT population, Combined Levofloxacin, Day 28) was −1.58 log10 CFU/g sputum, the MIC (B. cepacia) was greater than 128 µg/mL and the MIC (B. cepacia; five strains tested in mouse model, read-out: MICs of five B. cepacia strains) was 0.25 to 8 µg/mL (≈ 0.692 to 22.1 µM). The MIC (B. cepacia; strain BC1012, read-out: MIC) was 4 µg/mL (≈ 11.1 µM), the MIC (B. cepacia; strain BC1013, read-out: MIC) was 0.25 µg/mL (≈ 0.692 µM) and the MIC (B. cepacia; strain BC1014, read-out: MIC) was 1 µg/mL (≈ 2.77 µM). The MIC (B. cepacia; strain BC1020, read-out: MIC) was 8 µg/mL (≈ 22.1 µM), the MIC (B. cepacia; strain BC1021, read-out: MIC) was 8 µg/mL (≈ 22.1 µM) and the “Discontinuation from study, primary reason adverse event, patients (%)” value (shortened to “Discontinuation from study … (%)”) (stable CF patients; 120 mg QD) was 1 (2.6%). The “Study drug discontinuation, adverse event, patients (%)” value (stable CF patients; 120 mg QD) was 3 (7.9%), the “Study drug discontinuation, patients (%)” value (stable CF patients; 120 mg QD) was 3 (7.9%) and the “Discontinuation from study … (%)” value (stable CF patients; 240 mg BID) was 2 (5.1%). For the same molecule, the “Study drug discontinuation, adverse event, patients (%)” value (stable CF patients; 240 mg BID) was 2 (5.1%), the “Study drug discontinuation, patients (%)” value (stable CF patients; 240 mg BID) was 2 (5.1%) and the “Discontinuation from study … (%)” value (stable CF patients; 240 mg QD) was 1 (2.7%). The “Study drug discontinuation, adverse event, patients (%)” value (stable CF patients; 240 mg QD) was 1 (2.7%), the “Study drug discontinuation, patients (%)” value (stable CF patients; 240 mg QD) was 1 (2.7%) and the Significant adverse events (stable CF patients; Day 1 through the end of study) was “No significant adverse events were reported”.
